Results taken from US10624895B2, “Methods of sensitizing a patient with glioma to a therapeutic agent by administering small hairpin RNA targeting PDZ-RHOGEF” (THE TRANSLATIONAL GENOMICS RESEARCH INSTITUTE, priority 2016, dated 2020).

Tests used:
[1] = clinical trials for Alzheimer's disease and vascular dementia; cited from earlier work
T98G cells = test: EGF-stimulated transwell migration assay; assay type: cell-based, human; conditions: serum starved T98G, PPF one hour prior to EGF (10 ng/mL), 24 hours
Protocol: FIG. 33 depicts the impact of PPF treatment on EGF-stimulated glioma cell migration. Serum starved T98G cells were treated with PPF at various concentrations one hour prior to EGF addition (10 ng/mL). Cell migration was assessed using the transwell migration assay after 24 hours. *p<0.001; **p<0.01.
Thus, the capacity of TROY to stimulate glioma cell invasion and increase TMZ and IR resistance could rely on the formation of a TROY-EGFR signaling complex. This association could activate, or potentiate, shared signaling pathways survival pathways as well as activate distinct TROY signaling pathways that mediate TROY receptor specific functional activities. Therefore, therapeutic approaches targeting TROY and/or both receptors may yield increased therapeutic benefit.

TNFR1 = test: Western blot of TNFR1 expression after PPF treatment; assay type: cell-based, human; conditions: T98G, GBM10, GBM43 cells, 5 μM PPF, 24 hours
Protocol: FIG. 24A—a Western blot analysis of TROY expression in T98G cells. Cells were treated with PPF at indicated concentrations for 6 hrs, lysed, and cell lysates immunoblotted with anti-TROY antibody. Immunoblotting of α-Tubulin in cell lysates is included as a loading control. FIG. 24B—Western blot analysis of TROY expression in T98G, GBM43, and GBM10 cells. Cells were treated with PPF at indicated concentrations for 24 hrs, lysed, and cell lysates immunoblotted with anti-TROY and α-Tubulin antibodies. FIG. 24C—Western Blot analysis of TROY expression in GBM10 and GBM43 primary glioma cells. Cells were treated with 5 μM PPF, lysed at the indicated time-points, and the lysates immunoblotted with an anti-TROY antibody. Immunoblotting of β-Actin in cell lysates is included as a loading control. FIG. […]—Western Blot analysis of T98G, GBM10 and GBM43 glioma cells treated with 5 μM PPF for 24 hours. […]
Referring now to FIGS. 24A, 24B, 24C, and 24D: The inventors investigated if PPF could be utilized pharmacologically to decrease TROY expression in GBM cells. […] Cells were treated with increasing concentration of PPF, 1 to 20 μM lysed, and TROY expression assessed by immunobloting. […] Protein concentrations were determined using the BCA Assay (Pierce). […] Protein bands were detected using SuperSignal® Chemiluminescent Substrate (Pierce) with a UVP BioSpectrum 500 Imaging System.

[2] = tested on: T98G, GBM10, and GBM43 cells; test: Lamellipodia formation and membrane ruffling (F-actin staining); assay type: cell-based, human; conditions: 5 μM PPF 1 hour prior to 10% FBS for 5 min
Protocol: FIGS. 28A and 28B depict that PPF suppresses GBM cell membrane ruffling. FIG. 28A—GBM43 cells were preincubated with 5 μM PPF or vehicle for 1 hour prior to 10% FBS stimulation for 5 min. After FBS stimulation, cells were fixed, permeabilized, and stained for F-actin. For each experimental condition, at least 12 images were taken randomly. Arrowhead indicates membrane ruffles. FIG. 28B—Graph depicts the average lamellipodia in T98G, GBM10, and GBM43 cells in the presence or absence of 10% FBS with or without 5 μM PPF as indicated. Lamellipodia were traced using Image J software.
Referring now to FIGS. 28A and 28B: The inventors investigated lamellipodia formation and membrane ruffling. Briefly, glioma cells were plated onto 10-well glass slides pre-coated with 10 μg/ml laminin at the density of 3000 cells/well for 24 hours at 37° C. Subsequently, cells were serum starved for 16 hours. The cells were pre-incubated with 5 μM PPF or vehicle for 1 hour prior to 10% FBS stimulation for 5 min. After FBS stimulation, cells were fixed in 4% PFA, permeabilized with 0.1% Triton X-100, and incubated with Alexa Fluor® 555 Phalloidin (Invitrogen) to stain for F-actin. Slides were mounted with ProLong® reagent with DAPI and imaged using a Zeiss LSM 510 microscope. For each experimental condition, at least 12 images were randomly taken. Lamellipodia were traced using ImageJ software.

Rac1 = Rac1 activation assay after PPF; assay type: cell-based, human; conditions: T98G cells, 5 μM PPF 1 hour, then 10% FBS
Protocol: (§1) FIGS. 27A and 27B depict that PPF suppresses GBM cell invasion and Rac1 activation. FIG. 27A—T98G, GBM10, and GBM43 glioma cells were treated with 5 μM PPF and invasion was assayed over 24 hours utilizing a Matrigel® invasion assay, *p<0.05. FIG. 27B—T98G glioma cells were serum starved, pre-incubated with 5 μM PPF or vehicle for 1 hour, and then stimulated with 10% FBS for 2-10 mins. Cell lysates were harvested and equal concentrations of protein were assessed for Rac1 activation.
(§2) Referring now to FIGS. 27A and 27B: The inventors next examined whether PPF inhibited TROY dependent glioma cell invasion. […] Briefly, 5.0×10^5 cells glioma cells were seeded in 100-mm diameter culture dishes and incubated overnight at 37° C. Subsequently, cells were serum starved for 16 hours at 37° C. Cells were then harvested, re-suspended in growth factor reduced Matrigel® (Becton Dickinson) (1.0×10^5 cells/50 μL), added in triplicates to collagen-coated transwell chambers, and allowed to invade through Matrigel® in presence of 10% FBS and/or 5 μM PPF. After incubation for 24 hours at 37° C. non-invaded cells were scrapped off the upper side of the membrane and cells invaded to the other side of the membrane were fixed with 4% paraformaldehyde (PFA) (Affymetrix) and stained with DAPI (Invitrogen). Nuclei of invaded cells were counted in five high power fields (HPF) with a 20× objective.

[3] = tested on: T98G, GBM10, and GBM43 glioma cells; test: Matrigel invasion assay; assay type: cell-based, human; conditions: 5 μM PPF, 24 hours, 10% FBS
Protocol: as §1, §2

In the case of `CCCn1cnc2c1c(=O)n(CCCCC(C)=O)c(=O)n2C` [PPF, 3-methyl-1-(5-oxohexyl)-7-propyl-3,7-dihydro-1H-purine-2,6-dione], the side effect profile [1] is given as “minimal side effect profile”, the “EGF-stimulated glioma cell migration” value (T98G cells) is given as “reduced EGF-stimulated glioma cell migration” and the TNFR1 expression (TNFR1) is given as “did not affect the expression”. For the same compound, the “lamellipodia formation and membrane ruffling” value [2] was “significantly decreased”, the Rac1 activation (Rac1) was “inhibited Rac1 activation” and the glioma cell invasion [3] was “significantly inhibited glioma cell invasion”.
